# Values quoted from earlier work, collected in US11297852B2, “Method for treatment or prevention of gill disease” (NUTRECO IP ASSETS B.V., priority 2015, dated 2022).
# Read-outs that look alike come from different tables or passages of the source.
# What was measured:
# AGD [1] = conditions: in feed at 25 mg/kg
# amoebae = conditions: in vitro bath treatment at 10 mg/l, used individually
# P. perurans = conditions: in feed
# AGD [2] = conditions: oral supplementation
# AGD [3] = conditions: oral administration two weeks prior to challenge
# [4] = Atlantic salmon
# [5] = 7 days after P. perurans challenge
Compound,amoebae numbers (amoebae),percent of lamella with lesions compared to control fed fish (P. perurans; 14 and 21 days after challenge),percent of lamella with lesions compared to control fed fish (P. perurans; [5]),further results
Oc1c(Cl)cc(Cl)cc1Sc1cc(Cl)cc(Cl)c1O [Bithionol],,,,AGD associated lesions (AGD [1]): delay and reduction in intensity
CC[C@@H](C(=O)[C@@H](C)[C@@H](O)[C@H](C)CCc1ccc(C)c(O)c1C(=O)O)[C@H]1O[C@](CC)([C@H]2CC[C@](O)(CC)[C@H](C)O2)C[C@@H]1C [Lasalocid acid],significantly reduced amoebae numbers,no difference,reduced the percent of lamella with lesions,
c1ccc([C@H]2CN3CCSC3=N2)cc1 [levamisole],,,,impact on mortality levels (AGD [2]): no significant impact
glucans,,,,impact on mortality levels (AGD [2]): no significant impact
CO[C@@H]1[C@@H](OC)[C@H](C)[C@@](O)(CC(=O)O)O[C@H]1[C@H](C)[C@H]1O[C@@]2(CC[C@@](C)([C@H]3CC[C@@](C)([C@@H]4O[C@@H]([C@H]5O[C@](C)(O)[C@H](C)C[C@@H]5C)C[C@@H]4O[C@@H]4C[C@H](OC)[C@@H](OC)[C@H](C)O4)O3)O2)C[C@H](O)[C@H]1C [Maduramycin],significantly reduced amoebae numbers,no difference,reduced the percent of lamella with lesions,
CC[C@@H](C(=O)[C@@H](C)[C@@H](O)[C@H](C)[C@@H]1O[C@@H]([C@@H](CC)C(=O)O)CC[C@@H]1C)[C@H]1O[C@]2(C=C[C@@H](O)[C@]3(CC[C@@](C)([C@H]4CC[C@](O)(CC)[C@H](C)O4)O3)O2)[C@H](C)C[C@@H]1C [Salinomycin],significantly reduced amoebae numbers,no difference,reduced the percent of lamella with lesions,
"CCOC(=O)[C@@H](N)CS [LCEE, L-cysteine ethyl ester]",,,,progression of AGD associated gill pathology (AGD [3]): significantly delayed the progression; mucus viscosity [4]: reduce mucus viscosity
